Measured values reported in patent US10040804B2, “Compounds targeting proteins, compositions, methods, and uses thereof” (BioTheryX, Inc., priority 2016, dated 2018).

Legend:
[1] = system: IL-1β; assay: IL-1β expression in LPS stimulated PBMCs (Meso Scale); format: cell-based, human; settings: Homo sapiens, PBMC, compound concentration 1 μM
Summary of the method: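 Human PBMCs (200,000 cells/well in RPMI-1640/10% FBS) were pretreated with compound for 1 h, then stimulated with 100 ng/mL LPS for 18-24 h. IL-1β in supernatant was measured by Meso Scale assay. Activity is expressed as percentage of LPS-induced level, with DMSO-treated wells as negative control.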

[2] = system: IL-6; assay: IL-6 expression in LPS stimulated PBMCs (Meso Scale); format: cell-based, human; settings: Homo sapiens, PBMC; compound concentration 1 μM; LPS-stimulated PBMCs
Summary of the method: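 Thawed human PBMCs at 200,000 cells/well in RPMI-1640/10% FBS were pretreated with compound or DMSO for 1 h, then stimulated with 100 ng/mL LPS for 18–24 h. Supernatant IL-6 was measured by Meso Scale assay and expressed as % of LPS-induced activity.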

[3] = system: TNF-α; assay: TNF-α expression in LPS stimulated PBMCs (Meso Scale); format: cell-based, human; settings: Homo sapiens, PBMC, compound concentration 1 μM
Summary of the method: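 Thawed primary human PBMCs, 200,000 cells/well in RPMI-1640/10% FBS, pretreated with compound 1 h, then stimulated with 100 ng/mL LPS for 18-24 h. Supernatant TNF-α measured by Meso Scale assay; activity expressed as percentage of LPS-induced level, DMSO as negative control.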

[4] = system: IL-2; assay: anti-CD3-induced IL-2 secretion in PBMCs; format: cell-based; settings: Homo sapiens, PBMC; compound concentration 1 μM; anti-CD3 stimulated PBMCs, 24 h; DMSO = 1.0; read-out: Fold Change IL-2
Summary of the method: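 PBMCs stimulated on plates coated with 1 ug/mL anti-CD3 (OKT3), with compound or DMSO, 24 h. Supernatant IL-2 measured by Mesoscale; activity expressed as fold difference from DMSO-stimulated control.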

[5] = biological target: T1, GSPT1 (Homo sapiens, UniProt P15170); assay: GSPT1 protein levels by Western Blot analysis; format: cell-based; settings: DMSO = 100.00; for remaining activity at 0.1 µM: 100 nM compound concentration; for remaining activity at 1 µM: 1 μM compound concentration
T1 construct: Whole cell extracts were prepared using RIPA buffer according to manufacturer's protocol (Pierce); endogenous in cells
Summary of the method: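 Molm-13 AML cells in RPMI 1640 with 10% FBS, about 10^6 cells/mL, treated with compound or DMSO for 6-8 h. RIPA whole-cell lysates resolved by SDS-PAGE, blotted and probed for GSPT1 with β-actin reference; IRDye secondary antibodies quantified by LI-COR Odyssey infrared imaging.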

[6] = system: H1048 cells; assay: H1048 cell viability (CellTiter-Glo); format: cell-based; settings: Homo sapiens, NCI-H1048, 72 h, H1048, 3 days, DMSO = 100.00; for viability at 1 µM: 1 μM compound concentration; for viability at 10 µM: 10 μM compound concentration
Summary of the method: (§1)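 Molm-13 (RPMI-1640, 10% FBS) and H1048 (DMEM:F12, 5% FBS with supplements) plated at 20,000 cells/well, treated with compound or 0.1% DMSO for 3 days at 37° C., 5% CO2. Viability read by CellTiter-Glo luminescence after 10 min.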

[7] = system: Molm-13 cells; assay: Molm-13 cell viability (CellTiter-Glo); format: cell-based; settings: Homo sapiens, MOLM-13, read-out: % Inhibition (MOLM-13 Cell Viability); for cytotoxicity at 0.3 µM: compound concentration 0.3 μM; for cytotoxicity at 10 µM: compound concentration 10 μM
Summary of the method: as §1

[8] = system: MDA-MB-231 cells; assay: MDA-MB-231 cell viability (CellTiter-Glo); format: cell-based; settings: Homo sapiens, 72 h, 3 days, DMSO = 100.00; for viability at 1 µM: 1 μM compound concentration; for viability at 10 µM: 10 μM compound concentration
Summary of the method: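 Cells in DMEM with 10% FBS, seeded at 10,000 per well, exposed to compound (0.1% DMSO control) for 3 days at 37° C, 5% CO2. Viability read by CellTiter-Glo luminescence after 10 min shaking.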

T1 sequence (P15170 whole entry): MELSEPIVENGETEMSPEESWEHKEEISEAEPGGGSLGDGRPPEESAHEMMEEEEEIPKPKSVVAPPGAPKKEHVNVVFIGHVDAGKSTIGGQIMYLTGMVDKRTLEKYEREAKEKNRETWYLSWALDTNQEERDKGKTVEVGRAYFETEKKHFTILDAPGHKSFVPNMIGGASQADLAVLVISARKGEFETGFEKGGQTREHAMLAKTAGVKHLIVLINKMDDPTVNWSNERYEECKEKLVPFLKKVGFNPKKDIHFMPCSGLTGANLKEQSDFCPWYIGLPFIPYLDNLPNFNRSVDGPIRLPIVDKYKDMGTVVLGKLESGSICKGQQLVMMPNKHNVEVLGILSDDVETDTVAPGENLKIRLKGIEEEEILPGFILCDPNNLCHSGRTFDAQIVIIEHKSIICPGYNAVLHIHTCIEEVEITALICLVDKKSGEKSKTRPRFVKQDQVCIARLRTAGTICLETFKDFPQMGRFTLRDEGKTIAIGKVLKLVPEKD
T1 sequence (Q96SW2 whole entry, further chain): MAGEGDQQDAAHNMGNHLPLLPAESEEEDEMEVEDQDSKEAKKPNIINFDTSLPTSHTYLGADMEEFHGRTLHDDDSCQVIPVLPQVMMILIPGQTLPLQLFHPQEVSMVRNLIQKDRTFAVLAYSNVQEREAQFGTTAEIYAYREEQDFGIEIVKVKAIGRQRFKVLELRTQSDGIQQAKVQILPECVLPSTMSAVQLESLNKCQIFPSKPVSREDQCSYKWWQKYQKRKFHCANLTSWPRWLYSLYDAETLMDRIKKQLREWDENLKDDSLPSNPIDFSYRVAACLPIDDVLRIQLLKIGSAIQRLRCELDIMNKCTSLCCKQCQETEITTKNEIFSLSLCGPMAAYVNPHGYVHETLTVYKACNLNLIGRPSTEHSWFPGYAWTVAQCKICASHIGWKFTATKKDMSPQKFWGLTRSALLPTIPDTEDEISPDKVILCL
T1 sequence (Q16531 whole entry partner): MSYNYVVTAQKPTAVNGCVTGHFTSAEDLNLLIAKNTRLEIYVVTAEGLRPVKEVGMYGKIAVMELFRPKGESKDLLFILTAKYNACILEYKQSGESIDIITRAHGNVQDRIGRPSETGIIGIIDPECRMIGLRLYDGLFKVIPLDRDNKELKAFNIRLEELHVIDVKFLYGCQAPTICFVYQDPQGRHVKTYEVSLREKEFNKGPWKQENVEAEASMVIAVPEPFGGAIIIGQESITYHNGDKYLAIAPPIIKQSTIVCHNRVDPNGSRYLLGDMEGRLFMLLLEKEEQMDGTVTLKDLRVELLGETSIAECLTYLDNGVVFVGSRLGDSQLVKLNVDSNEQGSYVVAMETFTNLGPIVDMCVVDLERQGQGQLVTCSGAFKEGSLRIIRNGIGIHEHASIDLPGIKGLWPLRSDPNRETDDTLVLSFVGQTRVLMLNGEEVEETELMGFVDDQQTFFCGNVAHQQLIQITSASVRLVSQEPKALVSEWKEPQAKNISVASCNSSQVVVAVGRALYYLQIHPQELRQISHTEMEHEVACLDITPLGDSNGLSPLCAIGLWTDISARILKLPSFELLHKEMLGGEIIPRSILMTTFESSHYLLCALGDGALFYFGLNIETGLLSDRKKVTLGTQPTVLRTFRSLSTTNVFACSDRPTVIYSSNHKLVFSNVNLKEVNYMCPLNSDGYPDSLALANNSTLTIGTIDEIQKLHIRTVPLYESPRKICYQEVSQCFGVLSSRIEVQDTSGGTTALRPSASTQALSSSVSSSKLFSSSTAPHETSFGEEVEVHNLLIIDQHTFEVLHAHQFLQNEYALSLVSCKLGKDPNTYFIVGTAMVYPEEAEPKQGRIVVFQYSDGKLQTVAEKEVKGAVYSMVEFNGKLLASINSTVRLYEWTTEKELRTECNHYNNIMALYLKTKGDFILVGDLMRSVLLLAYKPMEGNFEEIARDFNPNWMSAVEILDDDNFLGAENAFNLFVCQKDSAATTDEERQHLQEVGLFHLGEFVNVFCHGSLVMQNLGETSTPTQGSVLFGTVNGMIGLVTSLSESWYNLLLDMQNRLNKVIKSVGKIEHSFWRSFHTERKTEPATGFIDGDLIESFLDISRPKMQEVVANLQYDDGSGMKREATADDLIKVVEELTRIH

SMILES | remaining activity at 0.1 µM [5] [%] | remaining activity at 1 µM [5] [%] | inhibition at 1 µM [1] [%] | inhibition at 1 µM [2] [%] | inhibition at 1 µM [3] [%] | fold induction at 1 µM [4] | viability at 1 µM [6] [%] | viability at 10 µM [6] [%] | cytotoxicity at 0.3 µM [7] [%] | viability at 1 µM [8] [%] | viability at 10 µM [8] [%] | cytotoxicity at 10 µM [7] [%] | cytotoxicity at 0.02 µM ([7]; compound concentration 0.02 μM) [%] | cytotoxicity at 0.8 µM ([7]; compound concentration 0.8 μM) [%] | cytotoxicity at 0.1 µM ([7]; compound concentration 0.1 μM) [%]
Cc1ccc(NC(=O)NCc2scc3c2CN([C@H]2CCCC(=O)NC2=O)C3=O)cc1C(F)(F)F [Compound 38, (S)-1-((5-(2,7-Dioxoazepan-3-yl)-4-oxo-5,6-dihydro-4H-thieno[3,4-c]pyrrol-1-yl)methyl)-3-(4-methyl-3-(trifluoromethyl)phenyl)urea] | 49 | 5.52 | 84 | 94 | 87 | 0.6 | 8.35 | 7.89 | 50 | 54.7 | 27.6 | – | – | – | –
Cc1ccc(NC(=O)NCc2scc3c2CN([C@H]2CCCC(=O)NC2=O)C3=O)cc1C(C)C [Compound 42, (S)-1-((5-(2,7-Dioxoazepan-3-yl)-4-oxo-5,6-dihydro-4H-thieno[3,4-c]pyrrol-1-yl)methyl)-3-(3-isopropyl-4-methylphenyl)urea] | 50.7 | 8.44 | 91 | 97 | 90 | 0.4 | 8.7 | 8.68 | – | 57.6 | 30.5 | – | – | 50 | –
Cc1c(Cl)cc(NC(=O)NCc2scc3c2CN([C@H]2CCCC(=O)NC2=O)C3=O)cc1C(C)C [Compound 43, (S)-1-(3-Chloro-5-isopropyl-4-methylphenyl)-3-((5-(2,7-dioxoazepan-3-yl)-4-oxo-5,6-dihydro-4H-thieno[3,4-c]pyrrol-1-yl)methyl)urea] | 56 | 14.2 | 73 | 88 | 77 | 0.5 | 7.97 | 7.63 | – | 55.2 | 23.7 | 100 | – | – | –

More lines, main results first:

remaining activity at 0.1 µM [5] [%] | remaining activity at 1 µM [5] [%] | SMILES | inhibition at 1 µM [1] [%] | inhibition at 1 µM [2] [%] | inhibition at 1 µM [3] [%] | fold induction at 1 µM [4] | viability at 1 µM [6] [%] | viability at 10 µM [6] [%] | cytotoxicity at 0.3 µM [7] [%] | viability at 1 µM [8] [%] | viability at 10 µM [8] [%] | cytotoxicity at 10 µM [7] [%] | cytotoxicity at 0.02 µM ([7]; compound concentration 0.02 μM) [%] | cytotoxicity at 0.8 µM ([7]; compound concentration 0.8 μM) [%] | cytotoxicity at 0.1 µM ([7]; compound concentration 0.1 μM) [%]
87.4 | 96 | Cc1ccc(CNC(=O)NCc2cc3c(s2)C(=O)N([C@H]2CCCC(=O)NC2=O)C3)cc1Cl [Compound 39, (S)-1-(3-Chloro-4-methylbenzyl)-3-((5-(2,7-dioxoazepan-3-yl)-6-oxo-5,6-dihydro-4H-thieno[2,3-c]pyrrol-2-yl)methyl)urea] | 24 | 0 | 18 | 1.4 | 58.3 | 19.9 | – | 105 | 101 | 9 | – | – | –
46 | 40 | Cc1ccc(NC(=O)NCc2cc3c(s2)C(=O)N(C2CCC(=O)NC2=O)C3)cc1Cl (centres unmarked) [Compound 40, 1-(3-Chloro-4-methylphenyl)-3-((5-(2,6-dioxopiperidin-3-yl)-6-oxo-5,6-dihydro-4H-thieno[2,3-c]pyrrol-2-yl)methyl)urea] | 37 | 17 | 34 | 0.3 | 12.9 | 13.6 | – | 57.7 | 50 | – | 50 | – | –
55.2 | 6.4 | Cc1ccc(NC(=S)NCc2scc3c2CN([C@H]2CCCC(=O)NC2=O)C3=O)cc1Cl [Compound 41] | 89 | 95 | 90 | 0.3 | 9.42 | 9.37 | 50 | 58.2 | 30 | – | – | – | –
57.3 | 53.6 | Cc1ccc(CNC(=O)NCc2cc3c(s2)C(=O)N(C2CCC(=O)NC2=O)C3)cc1Cl (centres unmarked) [Compound 44, 1-(3-Chloro-4-methylbenzyl)-3-((5-(2,6-dioxopiperidin-3-yl)-6-oxo-5,6-dihydro-4H-thieno[2,3-c]pyrrol-2-yl)methyl)urea] | 45 | 6 | 41 | 1 | 13.8 | 14.3 | – | 64.6 | 56.5 | – | – | – | 50
